Read-outs that look alike come from different tables or passages of the source.
Legend:
[1] = system: HeLa cervical adenocarcinoma cells; test: MTT antiproliferative assay, HeLa; format: cell-based; conditions: Homo sapiens, MTT, ± SD, read-out: GI50 in vitro Values, HeLa
Protocol: (§1) Human T-cell leukemia cell line Jurkat (ATCC TIB-152, E6-1 clone) was cultured in RPMI-1640 (Invitrogen) supplemented with 10% FBS (Invitrogen), 100 mg/L penicillin G, 100 mg/L streptomycin, 1.0 mM sodium pyruvate, 1.5 g/L sodium bicarbonate, and 4.5 g/L glucose (all from Sigma). Human cervical cancer cell line HeLa (ATCC S3) was cultured in DMEM (Invitrogen) supplemented with 10% FBS, 100 mg/L penicillin G, and 100 mg/L streptomycin. MCF-7 (human mammary carcinoma) cells were cultured in DMEM supplemented with 1.0 mM sodium pyruvate, 1% GlutaMax™-1 (Invitrogen), 100 μg/mL penicillin, 100 μg/mL streptomycin, and 10% FBS. Human uterine sarcoma MES-SA and MES-SA/Dx5 cells were cultured in RPMI-1640 medium supplemented with 10% FBS, 100 mg/L penicillin G and 100 mg/L streptomycin. All cells were incubated at 37° C. in a humidified atmosphere with 5% CO2. The other cell lines were maintained in a similar fashion as previously described.
(§2) To evaluate antiproliferative properties of the compounds of Formula I, mitochondrial dehydrogenase activities were measured using the MTT assay. The cell lines were prepared by trypsinizing and seeding […] cells per well into microplates. All compounds were reconstituted in dimethyl sulfoxide (DMSO) at a concentration of either 100 mM or 25 mM prior to treatment. The cells were grown for 24 hrs before treatment at concentrations ranging from 0.004 to 100 microM and incubated for 48 hrs in 200 microL media. 20 microL of MTT reagent in serum free medium (5 mg/mL) was added to each well and incubated further for 2 hrs. Media was removed and the resulting formazan crystals were re-solubilized in 100 microL of DMSO and the optical density (OD) was measured using a Thermomax Molecular Device plate reader at a wavelength of 490 nm. The experiments were performed in quadruplicate and repeated at least twice for each compound per cell line. Cells treated with 0.1% DMSO were used as a negative control, while phenyl arsine oxide (PAO) was used as a positive killing control.
(§3) Human cancer cell lines were obtained from the American Type Culture Collection (ATCC, Manassas, Va., USA), the European Collection of Cell Culture (ECACC, Salisbury, UK) and the Deutsche Sammlung von Mikroorganismen and Zellkulturen (DSMZ, Braunschweig, Germany). Human cervical adenocarcinoma HeLa cells were cultured in DMEM supplemented with 10% fetal bovine serum (FBS). Human mammary carcinoma MCF-7 cells were cultured in RPMI supplemented with 10% FBS. The U87 and U373 cells were cultured in DMEM culture medium (Lonza code 12-136F, Vervier, Belgium), while the SKMEL-28 and A549 cells were cultured in RPMI culture medium (Lonza; code 12-115F) supplemented with 10% heat-inactivated FBS (Lonza, FBS South America code DE14-801F). […] All cell lines were cultured in T25 flasks, maintained and grown at 37° C., 95% humidity, 5% CO2.
(§4) To evaluate antiproliferative properties of the synthesized compounds, the MTT assay was used. The cell lines were assessed by trypsinizing each cell line and seeding 4×10^3 cells per well into 96-well plates. All compounds were dissolved in DMSO at a concentration of either 100 mM or 50 mM prior to cell treatment. The cells were grown for 24 h and then treated with compounds at concentrations ranging from 0.04 to 100 μM and incubated for 48 h in 200 μL media. 20 μL of MTT reagent in serum free medium (5 mg/mL) was added to each well and incubated further for 2 h. Media was removed, and the resulting formazan crystals were re-solubilized in 200 μL of DMSO. A490 was measured using a Thermomax Molecular Device plate reader. The experiments were performed in quadruplicate and repeated at least twice for each compound per cell line. Cells treated with 0.1% DMSO were used as a control, and 1 μM phenyl arsine oxide (PAO) was used as a positive killing control.

U373 glioblastoma cells [2] = test: MTT antiproliferative assay, U373; format: cell-based, human; conditions: U373 MG
Protocol: as §2, §3
as §4, with “Cells treated with 0.1% DMSO were used as a control, and 1 μM phenyl arsine oxide (PAO) was used as a positive killing control.” left out

[3] = system: A549 non-small-cell lung cancer cells; test: MTT antiproliferative assay, A549; format: cell-based; conditions: Homo sapiens
Protocol: as §2, §3, §4

U373 glioblastoma cells [4] = test: Quantitative videomicroscopy, U373; format: cell-based, human; conditions: U373, at MTT-based GI50 value
Source text: (§5) Poor prognoses of glioblastoma, melanoma and NSCLC patients are generally attributed to the drug resistant nature of these malignanciesand therefore it was encouraging that 7-deazahypoxanthines 13 and 18-23 were active against the U87 human glioblastoma and A549 NSCLC carcinoma cell lines. Since tubulin-targeting agents are generally poorly effective against cancer cells resistant to the induction of apoptosis, compound 22 was further evaluated against U373 human glioblastoma and SKMEL human melanoma cells, reported to display apoptosis resistance. […] Computer-assisted phase-contrast microscopy (quantitative videomicroscopy) was utilized to confirm cell death as the principal mechanism of action associated with this compound's in vitro growth inhibitory effects in these cell lines.
(§6) The effects of 22 on the viability of human U373 glioblastoma and SKMEL melanoma cells were characterized in vitro using computer-assisted phase contrast video microscopy, as described elsewhere.

SKMEL melanoma cells = test: Quantitative videomicroscopy, SKMEL; format: cell-based, human; conditions: at MTT-based GI50 value
Source text: as §5, §6

U-87 glioblastoma cells = test: MTT antiproliferative assay, U-87; format: cell-based; conditions: Homo sapiens, Table 6, 48 h, ± SD, read-out: GI50 in vitro Values, U-87
Protocol: as §3, §4

SKMEL-28 melanoma cells = test: MTT antiproliferative assay, SKMEL-28; format: cell-based, human; conditions: SK-MEL-28
Protocol: as §2, §3
as §4, with “Cells treated with 0.1% DMSO were used as a control, and 1 μM phenyl arsine oxide (PAO) was used as a positive killing control.” left out

[5] = system: MCF-7 mammary gland adenocarcinoma cells; test: MTT antiproliferative assay, MCF-7; format: cell-based; conditions: Homo sapiens, MCF7, MTT, ± SD, read-out: GI50 in vitro Values, MCF-7
Protocol: as §1, §2, §3, §4

[6] = system: UM-SCC10B head and neck metastases cells; test: MTT antiproliferative assay, UM-SCC10B; format: cell-based; conditions: Table 1A, 48 h, read-out: Concentration required to reduce the viability of cells by 50%, UM-SCC10B
Protocol: as §2

[7] = system: UM-SCC22A head and neck cancer cells; test: MTT antiproliferative assay, UM-SCC22A; format: cell-based; conditions: Table 1A, 48 h, read-out: Concentration required to reduce the viability of cells by 50%, UM-SCC22A
Protocol: as §2

[8] = system: UM-SCC22B head and neck metastases cells; test: MTT antiproliferative assay, UM-SCC22B; format: cell-based; conditions: Homo sapiens, UMSCC22B, Table 1A, 48 h, read-out: Concentration required to reduce the viability of cells by 50%, UM-SCC22B
Protocol: as §2

[9] = system: UM-SCC10A head and neck cancer cells; test: MTT antiproliferative assay, UM-SCC10A; format: cell-based; conditions: UMSCC-10A, Table 1A, 48 h, read-out: Concentration required to reduce the viability of cells by 50%, UM-SCC10A
Protocol: as §2

B16F10 melanoma cells = test: MTT antiproliferative assay, B16F10; format: cell-based; conditions: Mus musculus, B16-F10, Table 2, 48 h, read-out: GI50 in vitro values, B16F10
Protocol: as §2

[10] = system: Hs683 anaplastic oligodendroglioma cells; test: MTT antiproliferative assay, Hs683; format: cell-based; conditions: Homo sapiens, Hs 683, Table 2, 48 h, read-out: GI50 in vitro values, Hs683
Protocol: as §2

[11] = system: HeLa, MCF-7, U-87 and A549 cells; test: MTT antiproliferative activity, statements for four-cell-line panel; format: cell-based, human; conditions: MCF-7, U-87, A549, 48 h
Protocol: The antiproliferative effects of compounds 13 and 18-23 were studied in a more challenging cell line panel that, in addition to the previously utilized HeLa and MCF-7, contained in vitro models for cancers known to be associated with poor prognoses, such as the U-87 human glioblastoma and A549 human non-small-cell lung (NSCLC) carcinoma.
as §4

SW480 colon cancer cells = test: MTT antiproliferative assay, SW480; format: cell-based; conditions: Homo sapiens, Table 1A, 48 h, read-out: Concentration required to reduce the viability of cells by 50%, SW480
Protocol: as §2

[12] = system: MES-SA/Dx5 uterine sarcoma cells (overexpress p-gp); test: MTT antiproliferative assay, MDR MES-SA/Dx5; format: cell-based, human
Protocol: as §1, §2
The cells of such tumors are referred to as multidrug resistant (MDR). Thus, we assessed the compounds of Formula I for antiproliferative activity in an MDR cancer cell line. This was done using the uterine sarcoma cells, MES-SA/Dx5, which overexpress p-gp. The parental drug-responsive MES-SA cell line was used as control.

SW620 colon cancer cells = test: MTT antiproliferative assay, SW620; format: cell-based; conditions: Homo sapiens, SW-620, Table 1A, 48 h, read-out: Concentration required to reduce the viability of cells by 50%, SW620
Protocol: as §2

HCT8 colon cancer cells = test: MTT antiproliferative assay, HCT8; format: cell-based; conditions: Homo sapiens, HCT-8, Table 1A, 48 h, read-out: Concentration required to reduce the viability of cells by 50%, HCT8
Protocol: as §2

GEO colon cancer cells = test: MTT antiproliferative assay, GEO; format: cell-based; conditions: Table 1A, 48 h, read-out: Concentration required to reduce the viability of cells by 50%, GEO
Protocol: as §2

[13] = system: MES-SA uterine sarcoma cells; test: MTT antiproliferative assay, MES-SA; format: cell-based; conditions: Homo sapiens, Table 3, parental drug-responsive cell line, read-out: GI50 in vitro Values, MES-SA
Protocol: as §1, with “The other cell lines were maintained in a similar fashion as previously described.” left out
To evaluate antiproliferative properties of the compounds of Formula I, mitochondrial dehydrogenase activities were measured using the MTT assay. […] Media was removed and the resulting formazan crystals were re-solubilized in 100 microL of DMSO and the optical density (OD) was measured using a Thermomax Molecular Device plate reader at a wavelength of 490 nm. […]
The cells of such tumors are referred to as multidrug resistant (MDR). Thus, we assessed the compounds of Formula I for antiproliferative activity in an MDR cancer cell line. […]

[14] = Table 6, 48 h, ± SD, read-out: GI50 in vitro Values, A549
[15] = Homo sapiens, Table 2, 48 h, MTT, read-out: GI50 in vitro values, U373
[16] = Table 2, 48 h, read-out: GI50 in vitro values, A549
[17] = Homo sapiens, Table 2, 48 h, MTT, read-out: GI50 in vitro values, SKMEL-28

| GI50 ([1]; Table 6, 48 h) [nM] | GI50 [3, 14] [nM] | GI50 (U-87 glioblastoma cells) [nM] | GI50 ([5]; Table 6, 48 h) [nM] | GI50 ([1]; Table 1, 48 h treatment) [nM] | GI50 (U373 glioblastoma cells [2]; [15]) [nM] | GI50 [3, 16] [nM] | GI50 (SKMEL-28 melanoma cells; [17]) [nM] | GI50 ([5]; Table 1, 48 h treatment) [nM] | GI50 (B16F10 melanoma cells) [nM] | GI50 [10] [nM] | Structure (SMILES) | other results |
| --- | --- | --- | --- | --- | --- | --- | --- | --- | --- | --- | --- | --- |
| 490 ± 50 | 1100 ± 400 | 2400 ± 600 | 610 ± 10 | – | – | – | – | – | – | – | Cc1nc(=O)c2c(-c3cncc(Br)c3)c(C(=O)c3ccccc3)[nH]c2[nH]1 [Compound 22, 6-Benzoyl-5-(5-bromopyridin-3-yl)-2-methyl-1H-pyrrolo[2,3-d]pyrimidin-4(7H)-one] | GI50 (U373 glioblastoma cells [2]; apoptosis-resistant U373 human glioblastoma, read-out: MTT-based GI50 value, U373): 300 nM; mechanism of growth inhibition by videomicroscopy (in words) (U373 glioblastoma cells [4]): inhibited cancer cell proliferation by inducing cell death; mechanism of growth inhibition by videomicroscopy (in words) (SKMEL melanoma cells): inhibited cancer cell proliferation by inducing cell death; GI50 (SKMEL-28 melanoma cells; apoptosis-resistant SKMEL human melanoma, read-out: MTT-based GI50 value, SKMEL): 300 nM |
| – | – | – | – | 80 ± 25 | 30 | 20 | 20 | 87 ± 20 | 40 | 20 | O=C(c1ccccc1)c1[nH]c2[nH]cnc(=O)c2c1-c1cncc(Br)c1 [Rig9, 6-Benzoyl-5-(5-bromopyridin-3-yl)-1H-pyrrolo[2,3-d]pyrimidin-4(7H)-one] | IC50 [6]: 130 nM; IC50 [7]: 120 nM; IC50 [8]: 20 nM; IC50 [9]: 90 nM |
| 3100 ± 100 | 12000 ± 1400 | 9230 ± 2130 | 4700 ± 800 | – | – | – | – | – | – | – | Cc1nc(=O)c2c(-c3cccnc3)c(C(=O)c3ccccc3)[nH]c2[nH]1 [Compound 21, 6-Benzoyl-2-methyl-5-(pyridin-3-yl)-1H-pyrrolo[2,3-d]pyrimidin-4(7H)-one] | antiproliferative potencies (in words) [11]: single-digit micromolar potencies |
| – | – | – | – | 35 ± 7 | < 10 | 20 | < 10 | 40 ± 24 | 10 | 10 | O=C(c1ccccc1)c1[nH]c2[nH]cnc(=O)c2c1-c1ccccc1 [Rig35, 6-Benzoyl-5-phenyl-1H-pyrrolo[2,3-d]pyrimidin-4(7H)-one] | IC50 (SW480 colon cancer cells): < 1 nM; GI50 ([12]; Homo sapiens, MES-SA/Dx5, Table 3, MDR cell line, read-out: GI50 in vitro Values, MES-SA/Dx5): 70 ± 4 nM; variation in the sensitivities of the parental and MDR cell lines ([12]; MES-SA/Dx5 vs MES-SA, in words): only a small variation; IC50 (SW620 colon cancer cells): < 1 nM; IC50 (HCT8 colon cancer cells): < 1 nM; IC50 (GEO colon cancer cells): 8 nM; GI50 [13]: 30 ± 4 nM |
